Values after ≈ are worked out from the molar mass of the structure shown. Like-named read-outs stand apart in the source and are kept apart here.
Legend:
[1] = tested on: gastric cancer MKN-45 cells; parameters: method as in doi:10.25135/rnp.294.2109.2194; settings: cited from earlier work
rat glioblastoma C6 = test: MTT cytotoxicity assay, C6 cells; format: cell-based; settings: 24 h incubation, mean ± SEM
Procedure: (§1) PC-3, MCF-7, C6, and H9c2 cells were cultured in DMEM medium (Biolot, St. Petersburg, Russia) containing 10% fetal bovine serum (Biolot, St. Petersburg, Russia) and 1% penicillin/streptomycin (Biolot, St. Petersburg, Russia) at 37 °C in a humidified atmosphere with 5% (v/v) CO2. The Raji cells were cultured in RPMI-1640 medium (Biolot, St. Petersburg, Russia) containing 10% fetal bovine serum (Biolot, St. Petersburg, Russia) and 1% penicillin/streptomycin (Biolot, St. Petersburg, Russia) under the same conditions.
(§2) Initially, cells were incubated in culture flasks until subconfluent (~80%). For testing, the cells were seeded at concentrations of 5 × 10^3 cells/well (PC-3, MCF-7, Raji, and C6 cells) or 3 × 10^3 cells/well (H9c2 cells), and experiments were started after 24 h.
(§3) The in vitro cytotoxicity of individual substances was determined by the MTT method (3-(4,5-dimethylthiazol-2-yl)-2,5-diphenyltetrazolium bromide), according to the manufacturer’s instructions (Sigma-Aldrich, St. Louis, MO, USA).
(§4) Investigated compounds were dissolved in DMSO at a concentration of 10 mM.
(§5) The cells were treated with the investigated compounds for 24 h or 48 h, and MTT reagent was added to each well of the plate. The vehicle with DMSO at a concentration of 1% was used as a control. The absorbance of formed formazan was measured at λ = 570 nm using a Multiskan FC microplate photometer (Thermo Scientific, Waltham, MA, USA) and expressed in optical units (o.u.). The results are presented as % of viable cells relative to vehicle, and 50% inhibition concentration of cell viability (IC50) was calculated.

[2] = tested on: human prostate cancer PC-3; test: MTT cytotoxicity assay, PC-3 cells; format: cell-based; settings: 24 h incubation, mean ± SEM
Procedure: as §1, §2, §3, §4, §5

[3] = tested on: human hepatocarcinoma HepG2; parameters: method as in doi:10.25135/rnp.294.2109.2194; settings: cited from earlier work
[4] = tested on: human breast cancer MCF-7; test: MTT cytotoxicity assay, MCF-7 cells; format: cell-based
Procedure: as §1, §2, §3, §4, §5

[5] = tested on: normal rat cardiomyocyte H9c2 cell line; test: MTT cytotoxicity assay, H9c2 cells; format: cell-based; settings: 24 h incubation, mean ± SEM
Procedure: as §1, §2, §3, §4, §5

human lymphoma Raji = test: MTT cytotoxicity assay, Raji cells; format: cell-based; settings: 24 h incubation, mean ± SEM
Procedure: as §1, §2, §3, §4, §5

SHP2 = target: SHP2; parameters: method as in earlier work; settings: cell-free assay; cited from earlier work
PTP1B = target: PTP1B; parameters: method as in earlier work; settings: cell-free assay; cited from earlier work
MCF-7 cells [6] = test: Apoptosis profile by flow cytometry (Muse annexin V and dead cell kit); format: cell-based, human; settings: 10 µM, 48 h
Procedure: After incubation, culture media were collected; then, cells were washed twice with cold PBS and incubated with trypsin-EDTA solution for 1 min. The cell suspension was washed twice by centrifugated at 250× g for 4 min with cold PBS and used for apoptosis detection by a Muse® annexin V and dead cell kit in accordance with manufacturer’s instructions (Luminex, Austin, TX, USA). Fluorescence was measured with a Muse® cell analyzer (Luminex, Austin, TX, USA), and data were processed by Muse 1.5 analysis software (Luminex, Austin, TX, USA). The proportion of apoptotic cells was expressed as a percentage.

MCF-7 cells [7] = test: Total caspase activity by flow cytometry (Muse multicaspase kit); format: cell-based, human; settings: 10 µM, 48 h; control 4.7%
Procedure: The influence of the compounds on the percentage of live MCF-7 cells (caspase−/7-AAD−), live MCF-7 cells with caspase activity (caspase+/7-AAD−), dead MCF-7 cells with caspase activity […] MCF-7 cells (caspase−/7-AAD+) was measured by a Muse® multicaspase kit (Luminex, Austin, TX, USA). The kit utilizes a VAD-peptide derivatized with a fluorescent group called fluorescent-labeled inhibitor of caspases (FLICA). The peptide binds to activated caspases, resulting in a fluorescent signal proportional to the number of active caspases in the cell. Fluorescent dye 7-AAD was used as a dead cell marker in this assay.
After incubation, culture media were collected, and cells were washed twice with cold PBS and incubated in trypsin-EDTA solution for 1 min. The cell suspension was washed twice by centrifugation at 250× g for 4 min with cold PBS and then used for caspase activity detection by a Muse® multicaspase kit (caspases 1, 3, 4, 5, 6, 7, 8, and 9) in accordance with manufacturer’s instructions (Luminex, Austin, TX, USA). Fluorescence was measured with a Muse® cell analyzer (Luminex, Austin, TX, USA), and data were processed by Muse 1.5 analysis software (Luminex, Austin, TX, USA).

[8] = tested on: H9c2, C6, PC-3, Raji and MCF-7 cells; test: MTT cytotoxicity, summary statements over several cell lines; format: cell-based; settings: 24 h
Procedure: as §3, §4, §5

MCF-7 cells [9] = test: Cell cycle analysis by flow cytometry (propidium iodide); format: cell-based, human; settings: 10 µM, 48 h
Procedure: After incubation, cells were trypsinized, harvested, washed with PBS, and fixed with ice-cold 70% ethanol in a dropwise manner prior to storage at −20 °C overnight. The cells were then washed with PBS, incubated with 200 μg/mL RNAse (PanReac, AppliChem, Darmstadt, Germany) and 20 μg/mL of propidium iodide (Sigma-Aldrich, St. Louis, MO, USA) for 30 min at 37 °C, and the DNA content was analyzed with a Muse® cell analyzer (Luminex, Austin, TX, USA). The data were processed by Muse 1.5 analysis software (Luminex, Austin, TX, USA). The proportion of cells in each phase of the cell cycle was expressed as a percentage.

[10] = Homo sapiens, MCF7, 24 h, 24 h incubation, mean ± SEM, read-out: IC50, MCF-7
[11] = 24 h incubation, mean ± SEM, read-out: IC50, MCF-7

Structure (SMILES)	IC50 (rat glioblastoma C6; Rattus norvegicus, C6, 24 h)	IC50 ([2]; Homo sapiens, PC-3, 24 h)	IC50 [4, 10]	IC50 ([5]; Rattus norvegicus, H9c2, 24 h)	IC50 (human lymphoma Raji; Homo sapiens, Raji, 24 h)	IC50 (rat glioblastoma C6)	IC50 [2]	IC50 [4, 11]	IC50 [5]	IC50 (human lymphoma Raji)	further results
CC(O)C(O)C=CC=CC(=O)OC1C=C(CO)C(O)(CO)C2(C)CCCC(C)(C)C12 (stereo not shown) [Compound 1, asperflavinoid A]	102 ± 1.7 µM	85.3 ± 2.9 µM	59 ± 4.4 µM	84.2 ± 3.3 µM	> 100 µM	–	–	–	–	–	IC50 [1]: 63.2 µM; IC50 [3]: 84.4 µM
CC(O)C(O)C=CC=CC(=O)OC1C=C(CO)C(O)(CO)C2(C)CCCC(C)(C)C12 (stereo not shown) [Compound 2, asperflavinoid B]	–	–	–	–	–	> 100 µM	75.2 ± 3.8 µM	54.1 ± 2.4 µM	74.4 ± 4.4 µM	> 100 µM	–
CC1(C)CCC[C@@]2(C)[C@H]1[C@H](OC(=O)/C=C/C=C/C=O)C=C1CO[C@@H](O)[C@@]12O [Compound 3, asperflavinoid C]	56 ± 1.2 µM	50.8 ± 1.6 µM	33.8 ± 2.2 µM	55.6 ± 2.6 µM	82.3 ± 2.9 µM	–	–	–	–	–	IC50, SHP2 enzyme activity (SHP2): 3.0 µg/mL (≈ 7.97 µM); IC50, PTP1B enzyme activity (PTP1B): 2.8 µg/mL (≈ 7.44 µM); amount of apoptotic cells (early and late) (MCF-7 cells [6]; control 1.7%): 15.0%; amount of living cells (MCF-7 cells [6]; control 98.6%): 84.9%; percentage of cells exhibiting caspase activity (living and 7-AAD-labeled) (MCF-7 cells [7]): 12.3%; decrease in MCF-7 cell viability ([4]; 10 µM, 48 h): ~50%; IC50 ([4]; Homo sapiens, MCF7, 48 h, 48 h incubation, concentrations up to 10 µM, read-out: IC50, MCF-7 cell viability, prolonged incubation): 10 µM; IC50 ([8]; range over both compounds and three cell lines): 54.3 to 88.1 µM; subG0 cells (MCF-7 cells [9]; control 5.4%): 34.6%; decrease in the percentage of cells in the S phase (MCF-7 cells [9]; relative to control): 54.5%; increase of the percentage of cells in the G2/M phase (MCF-7 cells [9]; relative to control): 25.2%; reduction of the percentage of cells in the G0/G1 phase (MCF-7 cells [9]; relative to control): 30.9%; increase of the subG0 population of cells (MCF-7 cells [9]; versus control): 6.4 times
CC(O)C(O)C=CC=CC(=O)OC1C=C2COC(O)C2(O)C2(C)CCCC(C)(C)C12 (stereo not shown) [Compound 4, asperflavinoid D]	> 100 µM	57.4 ± 2.4 µM	75 ± 6.2 µM	59.3 ± 1.7 µM	85.7 ± 6 µM	–	–	–	–	–	–
CC(O)C(O)C=CC=CC(=O)OC1C=C2COC(O)C2(O)C2(C)CCCC(C)(C)C12 (stereo not shown) [Compound 5, asperflavinoid E]	–	–	–	–	–	> 100 µM	59.1 ± 0.8 µM	80.6 ± 3.5 µM	63.9 ± 1.6 µM	94.4 ± 2.3 µM	–
CC1(C)CCC[C@@]2(C)[C@H]1[C@H](O)C=C1COC(=O)[C@@]12O [Compound 8, strobilactone A]	> 100 µM	> 100 µM	> 100 µM	> 100 µM	> 100 µM	–	–	–	–	–	influence on the viability of the tested cells ([8]; up to a concentration of 100 µM): did not influence the viability

Reference: PMC9504587, “Cytotoxic Drimane-Type Sesquiterpenes from Co-Culture of the Marine-Derived Fungi Aspergillus carneus KMM 4638 and Beauveria felina (=Isaria felina) KMM 4639” (Marine Drugs, 2022)
